SMILES strings stand for the structures.

One experiment deals with IPF cell line ATCC191. As to the kind of experiment: Total cell-lysate pan-acetyl immunoblot. Format: cell-based, human. The note with it: CMH 30 μM; vehicle 0.62. The procedure: IPF cell line ATCC191 and Normal cell line ATCC151 (0.5×10^6, 191 and 151, respectively), were cultured (10% DMEM) and total cell acetylations was compared. IPF cell line ATCC191 were further exposed in culture (10% DMEM) to CMH (30 μM, vs. 4% DMSO (vehicle)). Total cell-lysate immunoblots with subsequent pan-acetyl in IPF-lung vs. normal-lung myofibroblasts (191 vs. 151) was measured (FIG. 7A). IPF-lung myofibroblasts treated with CMH were compared to control treatment with vehicle (FIG. 7B). […] Thus, CMH inhibits IPF cell proteins-deacetylation and normalized it.

In a further experiment the target is HDACS (Homo sapiens, UniProt Q9UQL6). Conditions: prostate cancer cells; cited from earlier work.
In another experiment the target is HDAC9 (Homo sapiens, UniProt Q9UKV0). Conditions: prostate cancer cells; cited from earlier work.
In another experiment the test system is Ku70. As to the kind of experiment: Ku70-IP and immunoblots of myofibroblasts isolated from lungs of BLM-treated mice given CMH. Format: in vivo, mouse. Conditions: CMH 30 μM OA day 6, sacrifice day 14. The procedure: Oropharyngeal aspiration (OA) and induction of lung fibrosis in mice Oropharyngeal aspiration of BLM (OA-BLM) was performed as detailed in Golan-Gerstl et al., Am. J. Respir. Cell Mol. Biol. 36: 270-275, 2007. Lung fibrosis was assessed via semi-quantitative morphological index (Wallach-Dayan et al., PNAS USA 104: 20460-20465, 2007). Lung collagen was measured using a Sircol Collagen Assay kit (Biocolor, Belfast, Northern Ireland), and standard protocol of trichrome staining. Isolation of mouse lung myofibroblasts Myofibroblast isolation and culture was performed as described in Golan-Gerstl et al., Am. J. Respir. Cell Mol. Biol. 36: 270-275, 2007; and Wallach-Dayan et al., PNAS USA 104: 20460-20465, 2007.
Immunoprecipitation and immunoblotting Standard protocols were performed as described in Golan-Gerstl et al., Am. J. Respir. Cell Mol. Biol. 47: 271-279, 2012.
CMH (30 μM) or control vehicle 4% DMSO were administered into WT mice by a second OA on day 6 of OA-BLM (0.05 mU), or control-saline (FIG. 6A). Similar to SIRT1^y/y mice, BLM-treated mice and control saline-treated mice (FIG. 6B) that were exposed to CMH vs. vehicle alone, had low SIRT1 and FLIP expression in lung sections. Myofibroblasts isolated from lungs of BLM-treated mice had decreased Ku70 binding to SIRT1 from 1.2 to 0.6 (FIG. 6C), increased Ku70 acetylation from an OD of 0.1 to 0.91 (FIG. 6D), and decreased Ku70/FLIP complex from an OD of 2.43 to 1.55 (FIG. 6E). Compared to vehicle, CMH-treated mice reduced H&E and collagen-trichrome staining (FIG. 6F, upper and lower panels, respectively), SMI grade (average SMI from 2 to 1.1, FIG. 6G), and collagen in Sircol assay (from 200 μg to only 50 μg, FIG. 6H). Thus, In vivo inhibition of SIRT1 activity, FLIP expression, and lung fibrosis were detected in CMH-BLM-treated mice and attenuation of deacetylation activity on Ku70, a decrease in Ku70/FLIP complex, and FLIP expression levels were detected in myofibroblasts isolated from lungs of CMH-BLM-treated mice. […]

The next experiment concerns FLIP. As to the kind of experiment: FLIP protein by Western blot and flow cytometry in IPF-lung myofibroblasts. Format: cell-based, human. Conditions: CMH 30 μM, 72 h. The procedure:
Human lung myofibroblasts Differentiated fibroblasts from IPF-lungs and controls from patient lung biopsies performed for tumor diagnosis were obtained under a protocol detailed in Wallach-Dayan et al., J. Autoimmun. 59: 67-76, 2015. LL 97A (AlMy) (ATCC® CCL-191™)-IPF-lung, and LL 24 (ATCC® CCL-151™)-normal lung fibroblast cell lines were used.
FLIP protein in lung myofibroblasts Standard WB and flow cytometry were performed as described in Cohen et al., Am. J. Respir. Cell Mol. Biol. 40: 231-238, 2009.
FLIP downregulation from an OD of 1.85 to 0.49 (about 3.5-fold) was detected in WB (FIG. 4F), and a […] from a mean fluorescence intensity (MFI)=10^3 to only 10^1 was detected with flow cytometry (FIG. 4G). Thus, SIRT1-mediated Ku70-deacetylation stabilizes IPF-lung myofibroblast FLIP via Ku70/FLIP complex. This effect of CMH on Ku70 further disrupts Ku70/FLIP complex and destabilizes FLIP in IPF-lung myofibroblasts.
IPF cell line ATCC-191 (0.5×10^6), were exposed in culture (10% DMEM) to a compound of Formula 6 (1 or 3 μM) vs. 4% DMSO (vehicle) for 16 h. Ku70 immunoprecipitation with subsequent pan-acetyl (FIG. 8A) and immunoblots of Ku70 with anti-Ku70 mAb (FIG. 8B) or FLIP with anti-FLIP mAb (FIG. 8C) were measured. […] IPF-lung myofibroblasts decreased FLIP expression from an OD of 1.00 to 0.51 (about twofold, FIG. 8C).
IPF cell line ATCC-191 (0.5×10^6), were exposed in culture (10% DMEM) to a compound of Formula 12 (1 μM), vs. 4% DMSO (vehicle) for 16 h. Immunoblots of FLIP with anti-FLIP mAb were performed (FIG. 9). […] Thus, the compound of Formula 12 attenuates FLIP stabilization in IPF-lung myofibroblast.
A general note: Immunoblotting shows a protein as a band on a membrane.

The target of the next experiment is HDAC4 (Homo sapiens, UniProt P56524). Conditions: prostate cancer cells; cited from earlier work.
Chain of HDAC4 (P56524 whole entry, species assumed): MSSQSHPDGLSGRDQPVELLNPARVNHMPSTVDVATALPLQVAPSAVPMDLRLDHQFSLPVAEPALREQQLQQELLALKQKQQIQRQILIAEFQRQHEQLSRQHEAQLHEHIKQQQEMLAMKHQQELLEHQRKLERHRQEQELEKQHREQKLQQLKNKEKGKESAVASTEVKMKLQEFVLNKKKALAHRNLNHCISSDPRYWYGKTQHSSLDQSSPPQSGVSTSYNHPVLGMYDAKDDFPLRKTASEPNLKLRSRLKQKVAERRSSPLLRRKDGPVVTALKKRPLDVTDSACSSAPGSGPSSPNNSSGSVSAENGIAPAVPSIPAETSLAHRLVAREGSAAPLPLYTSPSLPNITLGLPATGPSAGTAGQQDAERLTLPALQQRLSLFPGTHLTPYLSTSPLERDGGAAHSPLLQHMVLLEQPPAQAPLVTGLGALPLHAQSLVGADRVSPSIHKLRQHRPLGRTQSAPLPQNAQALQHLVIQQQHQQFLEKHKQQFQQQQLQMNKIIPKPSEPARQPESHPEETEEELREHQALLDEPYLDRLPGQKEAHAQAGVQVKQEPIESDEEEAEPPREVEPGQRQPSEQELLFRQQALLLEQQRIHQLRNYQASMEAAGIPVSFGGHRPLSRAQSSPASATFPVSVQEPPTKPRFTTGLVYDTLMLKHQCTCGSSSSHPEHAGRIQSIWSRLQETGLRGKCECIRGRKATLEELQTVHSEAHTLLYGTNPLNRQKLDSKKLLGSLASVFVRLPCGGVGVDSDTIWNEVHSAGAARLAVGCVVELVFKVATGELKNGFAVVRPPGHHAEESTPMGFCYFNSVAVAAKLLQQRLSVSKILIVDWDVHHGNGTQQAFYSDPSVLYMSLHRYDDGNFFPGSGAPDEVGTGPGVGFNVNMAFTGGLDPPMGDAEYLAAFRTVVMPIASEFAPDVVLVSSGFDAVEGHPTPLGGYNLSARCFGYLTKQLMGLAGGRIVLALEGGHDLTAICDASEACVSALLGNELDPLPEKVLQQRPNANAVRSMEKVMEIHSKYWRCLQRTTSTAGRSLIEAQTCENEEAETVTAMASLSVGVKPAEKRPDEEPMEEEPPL

Chain of HDAC9 (Q9UKV0 whole entry, species assumed): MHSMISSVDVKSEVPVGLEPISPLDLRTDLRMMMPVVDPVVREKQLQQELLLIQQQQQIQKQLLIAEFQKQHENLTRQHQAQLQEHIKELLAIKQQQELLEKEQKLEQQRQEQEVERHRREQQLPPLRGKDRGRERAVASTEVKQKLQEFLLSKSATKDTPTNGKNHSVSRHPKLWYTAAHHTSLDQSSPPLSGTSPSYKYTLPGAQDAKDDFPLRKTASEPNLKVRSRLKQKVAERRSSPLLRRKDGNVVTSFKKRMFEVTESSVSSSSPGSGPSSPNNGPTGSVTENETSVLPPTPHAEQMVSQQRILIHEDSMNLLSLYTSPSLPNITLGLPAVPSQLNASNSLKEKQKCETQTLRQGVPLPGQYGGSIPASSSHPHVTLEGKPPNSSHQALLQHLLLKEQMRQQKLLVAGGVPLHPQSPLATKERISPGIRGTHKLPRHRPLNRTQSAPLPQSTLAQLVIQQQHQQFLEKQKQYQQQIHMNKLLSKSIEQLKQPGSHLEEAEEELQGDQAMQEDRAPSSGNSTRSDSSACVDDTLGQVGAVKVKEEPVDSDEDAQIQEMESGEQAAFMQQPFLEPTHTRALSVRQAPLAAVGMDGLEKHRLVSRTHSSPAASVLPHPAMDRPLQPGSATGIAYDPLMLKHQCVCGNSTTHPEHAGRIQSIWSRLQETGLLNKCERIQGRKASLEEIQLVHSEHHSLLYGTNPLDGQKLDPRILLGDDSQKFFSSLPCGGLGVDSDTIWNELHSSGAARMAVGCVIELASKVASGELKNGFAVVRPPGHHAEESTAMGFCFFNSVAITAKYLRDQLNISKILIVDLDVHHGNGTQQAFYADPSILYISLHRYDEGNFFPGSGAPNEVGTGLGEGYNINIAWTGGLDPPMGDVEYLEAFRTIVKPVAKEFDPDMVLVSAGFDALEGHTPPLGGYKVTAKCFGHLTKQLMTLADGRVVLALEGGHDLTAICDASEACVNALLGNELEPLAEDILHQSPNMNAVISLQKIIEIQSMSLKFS
Chain of HDACS (Q9UQL6 whole entry): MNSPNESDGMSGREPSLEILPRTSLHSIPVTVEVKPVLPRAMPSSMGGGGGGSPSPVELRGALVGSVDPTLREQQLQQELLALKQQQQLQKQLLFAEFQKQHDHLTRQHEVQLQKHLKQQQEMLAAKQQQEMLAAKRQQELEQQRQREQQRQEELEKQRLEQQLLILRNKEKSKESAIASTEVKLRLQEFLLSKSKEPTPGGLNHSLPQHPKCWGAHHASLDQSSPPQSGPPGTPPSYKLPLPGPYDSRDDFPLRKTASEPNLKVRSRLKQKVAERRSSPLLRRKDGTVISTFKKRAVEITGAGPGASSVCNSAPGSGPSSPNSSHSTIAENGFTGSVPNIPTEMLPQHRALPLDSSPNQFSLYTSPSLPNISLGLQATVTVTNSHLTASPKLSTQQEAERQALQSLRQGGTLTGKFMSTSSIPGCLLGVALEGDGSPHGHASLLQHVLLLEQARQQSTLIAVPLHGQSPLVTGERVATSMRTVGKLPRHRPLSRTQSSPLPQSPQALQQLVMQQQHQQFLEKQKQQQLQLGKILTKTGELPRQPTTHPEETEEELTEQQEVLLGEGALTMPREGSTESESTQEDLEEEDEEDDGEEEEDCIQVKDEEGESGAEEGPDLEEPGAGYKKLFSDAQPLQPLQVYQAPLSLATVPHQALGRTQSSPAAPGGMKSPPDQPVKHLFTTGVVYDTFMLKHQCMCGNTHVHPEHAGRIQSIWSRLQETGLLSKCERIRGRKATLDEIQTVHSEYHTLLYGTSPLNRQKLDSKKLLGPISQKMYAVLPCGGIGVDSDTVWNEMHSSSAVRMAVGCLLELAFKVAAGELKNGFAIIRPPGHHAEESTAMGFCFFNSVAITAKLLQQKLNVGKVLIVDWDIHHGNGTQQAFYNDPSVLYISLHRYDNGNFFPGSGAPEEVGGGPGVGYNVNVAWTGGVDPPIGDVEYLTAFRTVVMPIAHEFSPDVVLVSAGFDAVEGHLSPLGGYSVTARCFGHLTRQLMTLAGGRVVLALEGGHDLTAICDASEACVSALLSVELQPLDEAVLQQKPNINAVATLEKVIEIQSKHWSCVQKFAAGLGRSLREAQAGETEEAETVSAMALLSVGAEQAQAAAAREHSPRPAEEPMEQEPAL

As for `Cc1cc(Cl)ccc1OCCCC(=O)NO` [CMH, 4-(4-chloro-2-methylphenoxy)-N-hydroxybutanamide], the “Protein acetylation, optical density ratio to GAPDH (OD) in pan-acetyl immunoblots” value with IPF cell line ATCC191 is 1.77 OD. Besides, the “Inhibition of HDACS” value at HDACS was “not inhibited”. Also, at HDAC9, the “Inhibition of HDAC9” value is “not inhibited”. For the same compound, the “Ku70 acetylation OD (Ku70-IP, pan-acetyl IB)” value in the experiment on Ku70 (from 0.1) was found to be 0.91 OD. Moreover, in the experiment with Ku70 (from 1.2), the “Ku70 binding to SIRT1 (Ku70-IP, SIRT1 IB)” value worked out at 0.6. Further, the “Ku70/FLIP complex OD (Ku70-IP, FLIP IB)” value in the experiment with Ku70 (from 2.43) is 1.55 OD. In addition, in the experiment with FLIP, the “FLIP downregulation in WB” value is “about 3.5 fold” and the “FLIP reduction by flow cytometry” value is recorded as 60%. Moreover, the “FLIP OD in WB” value in the experiment with FLIP (from 1.85) worked out at 0.49 OD. Further, the “FLIP mean fluorescence intensity (MFI), flow cytometry” value in the experiment with FLIP (from 10^3) is 10^1. Further, on HDAC4, the “Inhibition of HDAC4” value is “not inhibited”.

The values above are taken from patent US12630501B2, “Anti-fibrotic compounds and use thereof” (HADASIT MEDICAL RESEARCH SERVICES AND DEVELOPMENT LTD., priority 2019, dated 2026).
